Results published in PubChem BioAssay AID330 (DTP/NCI, 2004).
“And” between values parts separate entries of the source, which are not always exact repeats. Equal values may be shown once. Inconclusive results and toxic doses are left out.

System: P388 leukemia ip, CD2F1 mice, survival T/C
Test: NCI In Vivo Anticancer Drug Screen. Data for tumor model P388 Leukemia (intraperitoneal) in CD2F1 (CDF1) mice
Settings: endpoint: median survival time, higher = longer survival
Outline: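 Mice carrying the transplanted tumor received test compound or vehicle. Survival was recorded in each group, and the value is the treated-group measurement divided by that of the vehicle-treated control group.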

[1] = dose: 50.0 mg/kg/injection, schedule: Q01DX005 (ip), vehicle: saline
[2] = dose: 100.0 mg/kg/injection, schedule: Q01DX005 (ip), vehicle: saline
[3] = dose: 200.0 mg/kg/injection, schedule: Q01DX005 (ip), vehicle: saline
[4] = dose: 20.0 mg/kg/injection, schedule: Q01DX009 (ip), vehicle: saline with Tween-80
[5] = dose: 40.0 mg/kg/injection, schedule: Q01DX009 (ip), vehicle: saline with Tween-80
[6] = dose: 100.0 mg/kg/injection, schedule: Q01DX009 (ip), vehicle: saline with Tween-80
[7] = dose: 100.0 mg/kg/injection, schedule: Q04DX003 (ip), vehicle: Klucel (hydroxypropylcellulose) (HPC)
[8] = dose: 200.0 mg/kg/injection, schedule: Q04DX003 (ip), vehicle: Klucel (hydroxypropylcellulose) (HPC)
[9] = dose: 400.0 mg/kg/injection, schedule: Q04DX003 (ip), vehicle: Klucel (hydroxypropylcellulose) (HPC)

For CC1=CC=CN2CCC(=O)N=C12, the T/C [1] was 113 % of control, the T/C [2] was 101 % of control and the T/C [3] was 101 % of control.

With CCCCN(CCCC)C(=N)c1ccnc2ccccc12 the T/C (dose: 6.25 mg/kg/injection, schedule: Q01DX005 (ip), vehicle: saline) was 95 % of control, the T/C (dose: 12.5 mg/kg/injection, schedule: Q01DX005 (ip), vehicle: saline) was 97 % of control and the T/C (dose: 25.0 mg/kg/injection, schedule: Q01DX005 (ip), vehicle: saline) was 97 % of control.

With COc1cc(OC)c2c[n+](C)c3c4cc(OC)c(OC)cc4ccc3c2c1 the T/C [4] was 161 % of control and the T/C [5] was 169 % of control.

With COc1cc2oc3ccccc3c(=O)c2cc1CSc1ccccc1N the T/C (dose: 12.5 mg/kg/injection, schedule: Q01DX009 (ip), vehicle: saline with Tween-80) was 89 % of control and 96 % of control, the T/C (dose: 25.0 mg/kg/injection, schedule: Q01DX009 (ip), vehicle: saline with Tween-80) was 93 % of control and 98 % of control and the T/C (dose: 50.0 mg/kg/injection, schedule: Q01DX009 (ip), vehicle: saline with Tween-80) was 92 % of control and 96 % of control. For the same compound, the T/C [6] was 87 % of control and 89 % of control.

For CN1CCOC(N2CCOCC2)C(C)(C)C1 (configuration not stated), the T/C [1] was 92 % of control, the T/C [2] was 88 % of control and the T/C [3] was 100 % of control.

In the case of Cc1nn(-c2ccccc2)c2oc3ccc(Cl)cc3c(=O)c12, the T/C (dose: 60.0 mg/kg/injection, schedule: Q01DX005 (ip), vehicle: saline) is reported as 96 % of control and the T/C (dose: 120.0 mg/kg/injection, schedule: Q01DX005 (ip), vehicle: saline) is reported as 92 % of control.

CSc1nn(CCC#N)c(=O)[nH]c1=O was tested, and the T/C (dose: 25.0 mg/kg/injection, schedule: Q01DX005 (ip), vehicle: water) was 104 % of control, the T/C (dose: 50.0 mg/kg/injection, schedule: Q01DX005 (ip), vehicle: water) was 103 % of control and the T/C (dose: 60.0 mg/kg/injection, schedule: Q01DX005 (ip), vehicle: Klucel (hydroxypropylcellulose) (HPC)) was 105 % of control. For the same compound, the T/C (dose: 100.0 mg/kg/injection, schedule: Q01DX005 (ip), vehicle: water) was 110 % of control, the T/C (dose: 120.0 mg/kg/injection, schedule: Q01DX005 (ip), vehicle: Klucel (hydroxypropylcellulose) (HPC)) was 100 % of control and the T/C (dose: 240.0 mg/kg/injection, schedule: Q01DX005 (ip), vehicle: Klucel (hydroxypropylcellulose) (HPC)) was 100 % of control.

With C(=C=C(c1ccccc1)c1ccccc1)=C(c1ccccc1)c1ccccc1 the T/C (dose: 50.0 mg/kg/injection, schedule: Q01DX009 (ip), vehicle: saline) was 101 % of control, the T/C (dose: 100.0 mg/kg/injection, schedule: Q01DX009 (ip), vehicle: saline) was 93 % of control and the T/C (dose: 200.0 mg/kg/injection, schedule: Q01DX009 (ip), vehicle: saline) was 92 % of control.

CCC1CC2CN(CCc3c([nH]c4ccccc34)C(C(=O)OC)(c3cc4c(cc3OC)N(C)C3C(O)(C(=O)OC)C(OC(C)=O)C5(CC)CCCN6CCC43C65)C2)C1 (configuration not stated) was tested, and the T/C (dose: 1.0 mg/kg/injection, schedule: Q01DX001 (ip), vehicle: water) was 124 % of control, the T/C (dose: 2.0 mg/kg/injection, schedule: Q01DX001 (ip), vehicle: water) was 122 % of control and the T/C (dose: 16.0 mg/kg/injection, schedule: Q01DX001 (ip), vehicle: water) was 153 % of control and 154 % of control. For the same compound, the T/C (dose: 32.0 mg/kg/injection, schedule: Q01DX001 (ip), vehicle: water) was 163 % of control.

For CCCCCCCN(CCCCCCC)CC(O)c1c(Br)c2ccccc2c2ccccc12 (configuration not stated), the T/C (dose: 10.0 mg/kg/injection, schedule: Q01DX009 (ip), vehicle: saline with Tween-80) was 115 % of control, the T/C [4] was 115 % of control and the T/C [5] was 98 % of control.

For Cc1c([N+](=O)[O-])oc2c1C(=O)NCCC2, the T/C (dose: 50.0 mg/kg/injection, schedule: Q01DX009 (ip), vehicle: Klucel (hydroxypropylcellulose) (HPC)) was 104 % of control, the T/C (dose: 100.0 mg/kg/injection, schedule: Q01DX009 (ip), vehicle: Klucel (hydroxypropylcellulose) (HPC)) was 91 % of control and the T/C (dose: 200.0 mg/kg/injection, schedule: Q01DX009 (ip), vehicle: Klucel (hydroxypropylcellulose) (HPC)) was 108 % of control.

With CCOC(=O)C(Cc1ccc(O)cc1)NC(=O)C1Cc2c([nH]c3ccccc23)C=N1 (configuration not stated) the T/C (dose: 60.0 mg/kg/injection, schedule: Q01DX005 (ip), vehicle: saline with Tween-80) was 100 % of control, the T/C (dose: 120.0 mg/kg/injection, schedule: Q01DX005 (ip), vehicle: saline with Tween-80) was 102 % of control and the T/C (dose: 240.0 mg/kg/injection, schedule: Q01DX005 (ip), vehicle: saline with Tween-80) was 106 % of control.

C=CC(C)(CCC1C(C)=CCC2C(C)(C)CCCC12C)OC1OC(C)C(O)C(O)C1O (configuration not stated) was tested, and the T/C (dose: 19.0 mg/kg/injection, schedule: Q01DX005 (ip), vehicle: Klucel (hydroxypropylcellulose) (HPC)) was 102 % of control, the T/C (dose: 20.0 mg/kg/injection, schedule: Q01DX005 (ip), vehicle: Klucel (hydroxypropylcellulose) (HPC)) was 97 % of control and the T/C (dose: 21.0 mg/kg/injection, schedule: Q01DX005 (ip), vehicle: Klucel (hydroxypropylcellulose) (HPC)) was 100 % of control. For the same compound, the T/C (dose: 38.0 mg/kg/injection, schedule: Q01DX005 (ip), vehicle: Klucel (hydroxypropylcellulose) (HPC)) was 101 % of control, the T/C (dose: 40.0 mg/kg/injection, schedule: Q01DX005 (ip), vehicle: Klucel (hydroxypropylcellulose) (HPC)) was 103 % of control and the T/C (dose: 42.0 mg/kg/injection, schedule: Q01DX005 (ip), vehicle: Klucel (hydroxypropylcellulose) (HPC)) was 98 % of control. The T/C (dose: 76.0 mg/kg/injection, schedule: Q01DX005 (ip), vehicle: Klucel (hydroxypropylcellulose) (HPC)) was 98 % of control, the T/C (dose: 80.0 mg/kg/injection, schedule: Q01DX005 (ip), vehicle: Klucel (hydroxypropylcellulose) (HPC)) was 98 % of control and the T/C (dose: 84.0 mg/kg/injection, schedule: Q01DX005 (ip), vehicle: Klucel (hydroxypropylcellulose) (HPC)) was 102 % of control. The T/C (dose: 152.0 mg/kg/injection, schedule: Q01DX005 (ip), vehicle: Klucel (hydroxypropylcellulose) (HPC)) was 108 % of control, the T/C (dose: 160.0 mg/kg/injection, schedule: Q01DX005 (ip), vehicle: Klucel (hydroxypropylcellulose) (HPC)) was 93 % of control and the T/C (dose: 168.0 mg/kg/injection, schedule: Q01DX005 (ip), vehicle: Klucel (hydroxypropylcellulose) (HPC)) was 98 % of control.

In the case of O=C1SC/C(=N\N=c2/scc(-c3ccc(Br)cc3)n2-c2ccc(Br)cc2)N1Cc1ccccc1, the T/C (dose: 100.0 mg/kg/injection, schedule: Q04DX002 (ip), vehicle: Klucel (hydroxypropylcellulose) (HPC)) is reported as 91 % of control, the T/C (dose: 200.0 mg/kg/injection, schedule: Q04DX002 (ip), vehicle: Klucel (hydroxypropylcellulose) (HPC)) is reported as 92 % of control and the T/C (dose: 400.0 mg/kg/injection, schedule: Q04DX002 (ip), vehicle: Klucel (hydroxypropylcellulose) (HPC)) is reported as 90 % of control.

CC(O)C(C)C(N)C(=O)O (configuration not stated) was tested, and the T/C (dose: 8.25 mg/kg/injection, schedule: Q01DX005 (ip), vehicle: water) was 100 % of control, the T/C (dose: 16.5 mg/kg/injection, schedule: Q01DX005 (ip), vehicle: water) was 98 % of control and the T/C (dose: 33.0 mg/kg/injection, schedule: Q01DX005 (ip), vehicle: water) was 100 % of control. For the same compound, the T/C (dose: 66.0 mg/kg/injection, schedule: Q01DX005 (ip), vehicle: water) was 99 % of control.

For OCC1(CO)C(O)C2CCN1CC2 (configuration not stated), the T/C [7] was 108 % of control, the T/C [8] was 110 % of control and the T/C [9] was 108 % of control.

Cc1ccc(-c2nc3n(c2/C=N/NC(N)=S)CCS3)cc1 was tested, and the T/C (dose: 100.0 mg/kg/injection, schedule: Q01DX001 (ip), vehicle: saline with Tween-80) was 109 % of control, the T/C (dose: 200.0 mg/kg/injection, schedule: Q01DX001 (ip), vehicle: saline with Tween-80) was 103 % of control and the T/C (dose: 400.0 mg/kg/injection, schedule: Q01DX001 (ip), vehicle: saline with Tween-80) was 97 % of control.

In the case of C=C(Cl)CSC(=S)N(CC)CC, the T/C (dose: 37.5 mg/kg/injection, schedule: Q01DX009 (ip), vehicle: saline sonified) is reported as 100 % of control, the T/C (dose: 75.0 mg/kg/injection, schedule: Q01DX009 (ip), vehicle: saline sonified) is reported as 104 % of control and the T/C (dose: 150.0 mg/kg/injection, schedule: Q01DX009 (ip), vehicle: saline sonified) is reported as 109 % of control.

For CN(C)c1ccc(N/C=C/C(=O)c2ccccc2O)cc1, the T/C (dose: 100.0 mg/kg/injection, schedule: Q01DX001 (ip), vehicle: other) was 103 % of control, the T/C (dose: 200.0 mg/kg/injection, schedule: Q01DX001 (ip), vehicle: other) was 100 % of control and the T/C (dose: 400.0 mg/kg/injection, schedule: Q01DX001 (ip), vehicle: other) was 96 % of control.

With Clc1n[nH]c(Cl)n1 the T/C [6] was 95 % of control.

In the case of CCOC(=O)/C=C/c1ccc2c(c1)OCO2, the T/C (dose: 100.0 mg/kg/injection, schedule: Q04DX003 (ip), vehicle: saline with Tween-80) is reported as 100 % of control, the T/C (dose: 200.0 mg/kg/injection, schedule: Q04DX003 (ip), vehicle: saline with Tween-80) is reported as 90 % of control and the T/C (dose: 400.0 mg/kg/injection, schedule: Q04DX003 (ip), vehicle: saline with Tween-80) is reported as 100 % of control.

With CCOC(=O)COC1=NN(c2cccc(C(F)(F)F)c2)CC1 the T/C [7] was 110 % of control, the T/C [8] was 110 % of control and the T/C [9] was 109 % of control.
